Assay results as given in patent publication US7417062B2, “Substituted arylamides” (ChemoCentryx, Inc., priority 2004, dated 2008).
Values belong to the compound of their own block, whether it stands above or below them.

Target: T1, CCXCKR2 receptor (Homo sapiens, UniProt P25106)
T1 construct: host or cells: MCF-7 (endogenous) and/or MDA-MB-435S transfected with hRDC1 in pcDNA3.1(+)
Test: Displacement of 125I-labeled SDF-1 from the CCXCKR2 receptor (radioligand binding, determination of IC50 values)
Conditions: MCF-7 and/or MDA-MB-435S cells expressing CCXCKR2; 125I SDF-1; 3 hr at 4° C.; read-out: Activity (ability to displace 125I SDF-1 from CCXCKR2)
Experimental: The ability of the compounds to displace the labeled chemokine from the CCXCKR2 receptor sites at multiple concentrations was then determined with the screening process.
Compounds that were deemed effective modulators were able to displace at least 50% of the SDF-1 from the CCXCKR2 receptor at concentrations at or below 10 micromolar (μM) and more preferably at concentrations at or below 2 micromolar. At present, especially preferred compounds can displace at least 50% of the SDF-1 from the CCXCKR2 receptor at concentrations at or below 500 nM. Exemplary compounds that met these criteria are reproduced in Table B below. All compounds were prepared as described in the Examples above, or by related methods substituting readily available starting materials.
Reagents and Cells. ^125I-labeled SDF-1 was purchased from Perkin-Elmer Life Sciences, Inc. (Boston, Mass.). The MCF-7 (adenocarcinoma; mammary gland) cell line was obtained from the American Type Culture Collection (Manassas, Va.) or and was cultured in DMEM (Mediatech, Herndon, Va.) supplemented with 10% fetal bovine serum (FBS) (HyClone Logan, Utah) and bovine insulin (0.01 mg/mL) (Sigma, St. Louis, Mo.) at 37° C. in a humidified incubator at a 5% CO2/air mixture. CCXCKR2 transfected MDA-MB-435S were produced as described below. MDA-MB-435S human breast cancer line, was purchased from ATCC, and cultured in DMEM/10% FBS medium. The complete coding sequence of the gene encoding CCXCKR2 (a.k.a.CXCR7, hRDC1), was isolated from MCF-7 cells using μMACs mRNA isolation kit (Miltenyi Biotec, Auburn, Calif.). DNA contamination was removed by DNase digestion via RNeasy columns (Qiagen, Inc., Valencia, Calif.) and cDNA was generated using GeneAmp RNA PCR Core Kit (Applied Biosystems, Foster City, Calif.). PCR of cDNA samples was performed using Taq PCR Master Mix kit (Qiagen, Inc.) and hRDC1 primers harboring 5′ and 3′ Not I sites (hRDC1F 5′-[…]-3′ (SEQ ID NO:1), hRDC1R 5′-[…]-3′ (SEQ ID NO:2)) Not I digested PCR product was ligated into Not I digested pcDNA3.1(+)(Invitrogen, Carlsbad, Calif.) and screened for orientation and sequence confirmed. Plasmid DNA was then isolated from overnight bacterial cultures by Maxiprep (Qiagen, Inc.). Plasmid DNA (10 μg) was added to MDA-MB-435s cells and cells were electroporated (0.22 kV, 960 uF) via Gene Pulser (Biorad laboratories, Hercules, Calif.). 48 hr post-electroporation, cells were transferred to selection medium (1000 ug/ml G418).
Binding Analysis. Target compounds were tested to determine their ability to bind with CCXCKR2 sites on MCF-7 and/or MDA-MB-435S cells. Efficiency-maximized radioligand binding using filtration protocols as described in Dairaghi D J, et al., HHV8-encoded vMIP-I selectively engages chemokine receptor CCR5. Agonist and antagonist profiles of viral chemokines., J. Biol. Chem. 1999 Jul. 30; 274(31): 21569-74 and Gosling J, et al., Cutting edge: identification of a novel chemokine receptor that binds dendritic cell-and T cell-active chemokines including ELC, SLC, and TECK., J. Immunol. 2000 Mar. 15; 164(6):2851-6 was used.
In these assays, MCF-7 and/or MDA-MB-435S cells were interrogated with the target compounds and the ability of these compounds to displace ^125I radiolabeled SDF-1 was assessed using the protocol described in Dairaghi and Gosling. The target compounds were added to the plate to the indicated concentration and were then incubated with cells followed by the addition of radiolabeled chemokine (^125I SDF-1) for 3 hr at 4° C. in the following binding medium (25 mM HEPES, 140 mM NaCl, 1 mM CaCl2, 5 mM MgCl2 and 0.2% bovine serum albumin, adjusted to pH 7.1). All assays were then incubated for 3 hrs at 4° C. with gentle agitation. Following incubation in all binding assays, reactions were aspirated onto PEI-treated GF/B glass filters (Packard) using a cell harvester (Packard) and washed twice (25 mM HEPES, 500 mM NaCl, 1 mM CaCl2, 5 mM MgCl2, adjusted to pH 7.1). […]

T1 sequence (P25106 whole entry): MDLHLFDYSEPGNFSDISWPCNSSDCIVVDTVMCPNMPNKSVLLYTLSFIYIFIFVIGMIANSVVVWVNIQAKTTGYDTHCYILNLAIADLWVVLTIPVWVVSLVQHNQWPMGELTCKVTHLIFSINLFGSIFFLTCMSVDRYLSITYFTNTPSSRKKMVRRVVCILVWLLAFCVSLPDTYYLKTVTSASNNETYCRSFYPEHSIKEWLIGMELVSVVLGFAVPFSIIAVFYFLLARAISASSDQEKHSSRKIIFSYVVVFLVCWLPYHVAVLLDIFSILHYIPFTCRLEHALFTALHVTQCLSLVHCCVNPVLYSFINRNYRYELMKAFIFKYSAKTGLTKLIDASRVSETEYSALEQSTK

Structure (SMILES): COc1ccc(C(=O)N(Cc2cc3ccccc3s2)C[C@@H]2CCCN2)cc1OC [Example 29, N-Benzo[b]thiophene-2-ylmethyl-3,4-dimethoxy-N—(S)-pyrrolidin-2-ylmethyl-benzamide]
- IC50: < 2000 nM

Structure (SMILES): COc1cc(C(=O)N(Cc2cc3ccccc3cn2)C[C@@H]2CCCN2CC2CNC2)cc2c1OC(C)(C)O2 [Example 39, 7-Methoxy-2,2-dimethyl-benzo[1,3]dioxole-5-carboxylic acid ((S)-1-azetidin-3-ylmethyl-pyrrolidin-2-ylmethyl)-isoquinolin-3-ylmethyl-amide]
- IC50: < 2000 nM

Structure (SMILES): COc1cc(C(=O)N(CCC2CCCN2C)Cc2cc3ccccc3[nH]2)cc(OC)c1OC (stereo not drawn) [Example 15, N-(1H-Indol-2ylmethyl)-3,4,5-trimethoxy-N-[2-(1-methyl-pyrrolidin-2-yl)-ethyl]-benzamide]
- IC50: < 2000 nM

Structure (SMILES): COc1ccc(C(=O)N(C[C@@H]2CCCN2CC2CCCCC2)c2ccc(-c3ccccc3)cc2)cc1OC
- IC50: < 10000 nM

Structure (SMILES): COc1ccc(C(=O)N(C[C@@H]2CCCN2CC2CCCCC2)c2cccc(-n3cccn3)c2)cc1OC [Example 75, N-((S)-1-Cyclohexylmethyl-pyrrolidin-2-ylmethyl)-3,4-dimethoxy-N-(3-pyrazol-1-yl-phenyl)-benzamide]
- IC50: < 10000 nM

Structure (SMILES): COc1cc(C(=O)N(CCCN2CCCCC2C)Cc2ncc(-c3ccccc3)s2)cc(OC)c1OC (stereo not drawn) [Example 19, 3,4,5-Trimethoxy-N-[3-(2-methyl-piperidin-1-yl)-propyl]-N-(5-phenyl-thiazol-2-ylmethyl)-benzamide]
- IC50: < 2000 nM

Structure (SMILES): COc1ccc(C(=O)N(Cc2nc3ccccc3s2)C[C@@H]2CCCN2CCO)cc1OC [Example 26, N-Benzothiazol-2-yl methyl-(S)—N-[1-(2-hydroxy-ethyl)-pyrrolidin-2-ylmethyl]-3,4-dimethoxy-benzamide]
- IC50: < 500 nM

Structure (SMILES): COc1cc(C(=O)N(CCCN2CCCCC2C)Cc2ccc3ccccc3c2)cc(OC)c1OC (stereo not drawn) [Example 18]
- IC50: < 500 nM

Structure (SMILES): COc1ccc(C(=O)N(C[C@@H]2CCCN2C(C)C)c2cccc(-c3ccccc3)c2)cc1OC [Example 23, N-Biphenyl-3-yl-(S)—N-(1-isopropyl-pyrrolidin-2-ylmethyl)-3,4-dimethoxy-benzamide]
- IC50: < 500 nM

Structure (SMILES): CCOC(=O)c1ccc(-c2cccc(N(C[C@@H]3CCCN3CC3CC3)C(=O)c3ccc(OC)c(OC)c3)c2)cc1 [Example 36, (S)-3′-[(1-Cyclopropylmethyl-pyrrolidin-2-ylmethyl)-(3,4-dimethoxy-benzoyl)-amino]-biphenyl-4-carboxylic acid ethyl ester]
- IC50: < 10000 nM

The next lines start with the values.

- IC50: < 500 nM
Structure (SMILES): COc1cc(C(=O)N(C[C@@H]2CCCN2)c2cccc(-c3ccccc3)c2)ccc1OC(F)F [Example 31, N-Biphenyl-3-yl-4-difluoromethoxy-3-methoxy-(S)—N-pyrrolidin-2-ylmethyl-benzamide]

- IC50: < 500 nM
Structure (SMILES): COc1cc(C(=O)N(Cc2ccc3ccccc3c2)C[C@@H]2CCCN2C2CCC2)cc2c1OC(C)(C)O2 [Example 59, 7-Methoxy-2,2-dimethyl-benzo[1,3]dioxole-5-carboxylic acid ((S)-1-cyclobutyl-pyrrolidin-2-ylmethyl)-naphthalen-2-ylmethyl-amide]

- IC50: < 500 nM
Structure (SMILES): COc1cc(C(=O)N(Cc2nc(-c3ccccc3)sc2Cl)C[C@@H]2C[C@@H]3CCCC[C@@H]3N2)cc2c1OC(C)(C)O2 [Example 79, 7-Methoxy-2,2-dimethyl-benzo[1,3]dioxole-5-carboxylic acid (5-chloro-2-phenyl-thiazol-4-ylmethyl)-[(2S,3aS,7 aS)-1-(octahydro-indol-2-yl)methyl]-amide]

- IC50: < 500 nM
Structure (SMILES): COc1cc(C(=O)N(CCC2CCCN2C)Cc2ccc3c(c2)OCCO3)cc(OC)c1OC (stereo not drawn) [Example 9, N-(2,3-Dihydro-benzo[1,4]dioxin-6-ylmethyl)-3,4,5-trimethoxy-N-[2-(1-methyl-pyrrolidin-2-yl)-ethyl]-benzamide]

- IC50: < 500 nM
Structure (SMILES): COc1cc(C(=O)N(Cc2nc(-c3ccccc3)c(C(F)(F)F)s2)C[C@@H]2C[C@@H]3CCCC[C@@H]3N2)cc2c1OC(C)(C)O2 [Example 77, 7-Methoxy-2,2-dimethyl-benzo[1,3]dioxole-5-carboxylic acid [(2S,3aS,7aS)-1-(octahydro-indol-2-yl)methyl]-(4-phenyl-5-trifluoromethyl-thiazol-2-ylmethyl)-amide]

- IC50: < 500 nM
Structure (SMILES): COc1cc(C(=O)N(Cc2nc(-c3ccccc3)cs2)C[C@@H]2CCCN2CC2CNC2)cc2c1OC(C)(C)O2 [Example 52, 7-Methoxy-2,2-dimethyl-benzo[1,3]dioxole-5-carboxylic acid ((S)-1-azetidin-3-ylmethyl-pyrrolidin-2-ylmethyl)-(4-phenyl-thiazol-2-ylmethyl)-amide]

- IC50: < 500 nM
Structure (SMILES): COc1cc(C(=O)N(CCC2CCCN2C)Cc2ccc3ccccc3n2)cc(OC)c1OC (stereo not drawn) [Example 11]

- IC50: < 500 nM
Structure (SMILES): COc1cc(C(=O)N(Cc2csc(-c3ccccc3)n2)C[C@@H]2CCCN2)cc2c1OC(C)(C)O2 [Example 55, 7-Methoxy-2,2-dimethyl-benzo [1,3]dioxole-5-carboxylic acid (2-phenyl-thiazol-4-ylmethyl)-pyrrolidin-2-ylmethyl-amide]

- IC50: < 500 nM
Structure (SMILES): COc1ccc(C(=O)N(C[C@@H]2CCCN2CCO)c2cccc(-c3ccccc3)c2)cc1OC [Example 22, N-Biphenyl-3-yl-(S)—N[1-(2-hydroxy-ethyl)-pyrrolidin-2ylmethyl]-3,4-dimethoxy-benzamide]

- IC50: < 500 nM
Structure (SMILES): COc1cc(C(=O)N(Cc2cc3ccccc3o2)C[C@@H]2CCCN2C2CCC2)cc2c1OC(C)(C)O2 [Example 58, 7-Methoxy-2,2-dimethyl-benzo[1,3]dioxole-5-carboxylic acid benzofuran-2-ylmethyl-((S)-1-cyclobutyl-pyrrolidin-2-ylmethyl)-amide]

- IC50: < 500 nM
Structure (SMILES): COc1ccc(C(=O)N(C[C@@H]2CCCN2CC2CCCCC2)c2cccc(-c3ccccc3)c2)cc1OC [Example 24, N-biphenyl-3-yl-(S)—N-(1-cyclohexylmethyl-pyrrolidin-2-ylmethyl)-3,4-dimethoxy-benzamide]

- IC50: < 500 nM
Structure (SMILES): COCCOCCN1CCC[C@H]1CN(Cc1ccc2ccccc2n1)C(=O)c1cc(OC)c2c(c1)OC(C)(C)O2 [Example 47, 7-Methoxy-2,2-dimethyl-benzo[1,3]dioxole-5-carboxylic acid {(S)-1-[2-(2-methoxy-ethoxy)-ethyl]-pyrrolidin-2-ylmethyl}-quinolin-2-ylmethyl-amide]

- IC50: < 500 nM
Structure (SMILES): COc1ccc(C(=O)N(Cc2ccc3ccccc3c2)C[C@@H]2CCCN2CC2CC=CCC2)cc1OC (stereo partly drawn) [Example 1a]

- IC50: < 500 nM
Structure (SMILES): COc1cc(C(=O)N(Cc2nc(-c3ccccc3)cs2)C[C@@H]2CCCN2C2CCC2)cc2c1OC(C)(C)O2 [Example 50, 7-Methoxy-2,2-dimethyl-benzo[1,3]dioxole-5-carboxylic acid ((S)-1-cyclobutyl-pyrrolidin-2-ylmethyl)-(4-phenyl-thiazol-2-ylmethyl)-amide]
